Laboratory results as given in EP1674457B1, “Derivatives of squaric acid with anti-proliferative activity” (GPC Biotech AG, priority 2004, dated 2006).
pIC50: −log10 of the molar value.

Experiments:
A2780 [1] = experiment: SRB assay, inhibition of tumor cell growth at 1 µM (Example 61); assay type: cell-based, Human; conditions: Homo sapiens, 48 hours
Method: (§1) 3,000-15,000 cells/well were exposed to the test compounds at a concentration of 1 µM for 48 hours, and cytotoxicty was measured using the SRB assay according to Shekan et al (J Natl Cancer Inst (1990) 82, 1107-112). Briefly, cells were plated in 96 well dishes 24 hours prior to compound addition. The assay was terminated with the addition of cold TCA to a final concentration of 10% and the plates were incubated for one hour at 4°C. The plates were then washed 5 times with water and 100µl of a Sulforhodamine B solution (4%) was added to each well. The plate was then incubated for 10 minutes at room temperature before removal of unbound dye by washing with 1% acetic acid. The bound dye was solubilized with 10 mM Trizma base and the absorbance read at OD570. Inhibitory activity of the compounds was calculated as % inhibition compared to cells treated with the solvent (DMSO). Table 2 represents the growth inhibitory activity of certain compunds of the invention across a number of tumor cell lines.

A-549 [2] = experiment: as above; assay type: cell-based; conditions: Homo sapiens, A549, 48 hours
Method: as §1

HCT-116 [3] = experiment: as above; assay type: cell-based; conditions: Homo sapiens, 48 hours
Method: as §1

MCF7 [4] = experiment: as above; assay type: cell-based; conditions: Homo sapiens, 48 hours
Method: as §1

PC-3 [5] = experiment: as above; assay type: cell-based; conditions: Homo sapiens, 48 hours
Method: as §1

SW-620 [6] = experiment: as above; assay type: cell-based; conditions: Homo sapiens, 48 hours
Method: as §1

A2780 [7] = experiment: IC50 determination by SRB assay (Example 62); assay type: cell-based; conditions: Homo sapiens
Method: as §1
(§2) The assay was performed similar to example 61. However, test compounds were added at various concentrations, such as from 0.001 to about 0.1 µM, from 0.1 to about 10 µM, or from 1 to about 10 µM, as the need may be, in order to estimate the IC50 values. IC50 values were determined by plotting the percentage inhibitory activity for each concentration, fitting a curve using appropriate software and estimating the concentration at which 50% inhibition of growth would occur.

HCT-116 [8] = experiment: IC50 determination by SRB assay (Example 62); assay type: cell-based; conditions: Homo sapiens, HCT-116; HCY-116
Method: as §1, §2

PC-3 [9] = experiment: IC50 determination by SRB assay (Example 62); assay type: cell-based; conditions: Homo sapiens
Method: as §1, §2

A-549 [10] = experiment: IC50 determination by SRB assay (Example 62); assay type: cell-based; conditions: Homo sapiens, A549
Method: as §1, §2

MCF7 [11] = experiment: IC50 determination by SRB assay (Example 62); assay type: cell-based; conditions: Homo sapiens
Method: as §1, §2

SW-620 [12] = experiment: IC50 determination by SRB assay (Example 62); assay type: cell-based; conditions: Homo sapiens
Method: as §1, §2

| pIC50 (A2780 [7]) | pIC50 (HCT-116 [8]) | pIC50 (PC-3 [9]) | pIC50 (A-549 [10]) | pIC50 (MCF7 [11]) | pIC50 (SW-620 [12]) | SMILES | inhibition at 1 µM (A2780 [1]) | inhibition at 1 µM (A-549 [2]) | inhibition at 1 µM (HCT-116 [3]) | inhibition at 1 µM (MCF7 [4]) | inhibition at 1 µM (PC-3 [5]) | inhibition at 1 µM (SW-620 [6]) |
| --- | --- | --- | --- | --- | --- | --- | --- | --- | --- | --- | --- | --- |
| > 7.70 | > 7.70 |  | > 5.70 | > 5.00 |  | O=c1c(NCCCCCCOc2ccccc2)c(Nc2ccncc2)c1=O [SQ-12, 3-(6-Phenoxyhexylamino)-4-(pyridin-4y1-amino)-3-cyclobutene-1,2-dione] | > 80% | > 50% | > 80% | > 20% | > 50% | > 20% |
| > 7.70 | > 7.70 | > 7.70 |  |  |  | O=c1c(NCCCCCCCc2ccccc2)c(Nc2ccncc2)c1=O [SQ-22, 3-(7-Phenylheptylamino)-4-(pyridin-4-yl-amino)-cyclobut-3-ene-1,2-dione] | > 80% | > 50% | > 80% | > 20% | > 50% | > 50% |
| > 5.00 | > 5.00 | < 5.00 |  |  |  | O=c1c(NCc2cccc(COc3ccc(Cl)cc3)c2)c(Nc2cccnc2)c1=O [SQ-35, 3-[3-(4-Chlorophenoxymethyl)-benzylamino]-4-(pyridin-3-yl-amino)-cyclobut-3-ene-1,2-dione] |  |  |  |  |  |  |
| > 7.70 | > 7.00 | > 6.30 |  |  |  | O=c1c(NCCc2ccc(Oc3ccc(Cl)cc3)cc2)c(Nc2cccnc2)c1=O [SQ-6, 3-{2-[4-(4-Chlorophenoxy)-phenyl]-ethylamino}-4-(pyridin-3-yl-amino)-cyclobut-3-ene-1,2-dione] |  |  |  |  |  |  |

Continued, compound first:

| SMILES | pIC50 (A2780 [7]) | pIC50 (HCT-116 [8]) | pIC50 (PC-3 [9]) | pIC50 (A-549 [10]) | pIC50 (MCF7 [11]) | pIC50 (SW-620 [12]) | inhibition at 1 µM (A2780 [1]) | inhibition at 1 µM (A-549 [2]) | inhibition at 1 µM (HCT-116 [3]) | inhibition at 1 µM (MCF7 [4]) | inhibition at 1 µM (PC-3 [5]) | inhibition at 1 µM (SW-620 [6]) |
| --- | --- | --- | --- | --- | --- | --- | --- | --- | --- | --- | --- | --- |
| O=c1c(NCCCCCCOc2ccc(CN3CCOCC3)cc2)c(Nc2cccnc2)c1=O [SQ-39, 3-(6-[4-(Morpholinomethyl)-phenoxy]-hexylamino)-4-(pyridin-3-yl-amino)-3-cyclobutene-1,2-dione] | > 7.70 | > 7.70 | > 7.00 |  |  |  | > 80% | > 50% | > 80% | > 5% | > 20% | > 20% |
| O=c1c(NCCC2CCN(Cc3ccccc3)CC2)c(Nc2ccncc2)c1=O [SQ-38, 3-[2-(1-Benzylpiperidin-4-yl)-ethylamino]-4-(pyridin4-yl-amino)-cyclobut-3-ene-1,2-dione] | > 5.00 | > 5.00 | > 5.00 |  |  |  |  |  |  |  |  |  |
| Cc1ccc(OCCCCCCNc2c(Nc3cccnc3)c(=O)c2=O)cc1 [SQ-4] |  | > 7.00 |  | > 6.30 | > 5.00 | > 5.70 | > 80% | > 50% | > 80% |  | > 50% | > 50% |
| O=c1c(NCCCCCCOc2ccc(OCCN3CCOCC3)cc2)c(Nc2ccncc2)c1=O [SQ-23, 3-[6-(4-(2-Morpholin-4-yl-ethoxy)-phenoxy)-hexylamino]-4-(pyridin-4-yl-amino)-cyclobut-3-ene-1,2-dione] | > 7.70 | > 7.70 | > 7.70 | > 7.70 | > 6.30 |  | > 80% | > 50% | > 80% |  | > 50% | > 20% |
| O=c1c(NCCCCCCOc2cccnc2)c(Nc2ccncc2)c1=O [SQ-16, 3-(Pyridin-4-ylamino)-4-[6-(pyridin-3-yloxy)-hexylamino]-cyclobut-3-ene-1,2-dione] | > 7.00 | > 6.30 | > 6.30 |  |  |  | > 80% | > 20% | > 80% | > 5% | > 20% | > 20% |
| O=c1c(NCCCCCCOc2ccccc2)c(Nc2cccnc2)c1=O [SQ-3] |  | > 7.00 |  | > 6.30 | > 5.00 | > 6.30 | > 80% | > 50% | > 80% | > 5% | > 50% | > 50% |
| O=c1c(NCCCCCCOc2ccc(OCCN3CCOCC3)cc2)c(Nc2cccnc2)c1=O [SQ-24, 3-[6-(4-(2-Morpholin-4-yl-ethoxy)-phenoxy)-hexylamino]-4-(pyridin-3-yl-amino)-cyclobut-3-ene-1,2-dione] | > 7.70 | > 7.70 | > 7.00 | > 7.00 |  | > 5.70 | > 80% | > 50% | > 80% | > 20% | > 50% | > 20% |
| O=c1c(NCCCCCCSc2ccc(Cl)cc2)c(Nc2ccncc2)c1=O [SQ-27, 3-[6-(4-Chlorophenylsulfanyl)-hexylamino]-4-(pyridin-4-yl-amino)-cyclobut-3-ene-1,2-dione] |  | > 7.00 |  | > 5.70 |  | > 6.30 | > 80% | > 50% | > 80% | > 20% | > 50% | > 20% |
